Source: patent publication US9932309B2, “2-oxo-3,4-dihydropyridine-5-carboxylates and their use” (UNIVERSITE DE LILLE 2 DROIT ET SANTE, priority 2014, dated 2018)

Legend:
mTGR5 = target: T1, mTGR5 (Mus musculus, UniProt Q80SS6); assay: TGR5/CRE Luciferase Assay (mTGR5); format: cell-based; details: for EC50: HEK 293 cells co-transfected with pCMV AC6-TGR5m and pCRE TA-Luciferase, overnight incubation; for mTGR5 % trans: percentage of the 10 μM LCA value, HEK 293 cells transfected with mTGR5
T1 construct: expressed in transfected cells; host or cells: HEK293 cells, transiently co-transfected with the pCRE TA-Luciferase reporter
T1 sequence (Q80SS6 1-329): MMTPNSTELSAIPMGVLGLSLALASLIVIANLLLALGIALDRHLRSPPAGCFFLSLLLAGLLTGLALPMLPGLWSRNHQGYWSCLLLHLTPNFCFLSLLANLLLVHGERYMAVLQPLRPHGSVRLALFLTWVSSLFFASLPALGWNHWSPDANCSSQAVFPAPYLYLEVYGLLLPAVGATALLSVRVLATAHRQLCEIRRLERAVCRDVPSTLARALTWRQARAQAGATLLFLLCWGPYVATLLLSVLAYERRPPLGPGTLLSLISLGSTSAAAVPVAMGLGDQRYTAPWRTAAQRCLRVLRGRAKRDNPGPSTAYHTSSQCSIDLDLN
Description: (§1) TGR5/CRE Luciferase Assay
(§2) In the following Tables TGR5 activation by compounds of the invention and subsequent increase in intracellular cAMP were evaluated using a luciferase reporter gene assay. Human embryonic kidney (HEK) 293 cells were transiently co-transfected with pCMV tag4b-TGR5 h (to follow hTGR5 activation) or pCMV AC6-TGR5m (to follow mTGR5 activation) expression plasmids and the pCRE TA-Luciferase reporter plasmid using the JET PEI reagent (Polyplus transfection). Transfected cells were seeded in 96-well plates and incubated overnight with the test compounds at increasing concentrations tested in duplicate. Lithocolic acid (LCA) at 10 μM was used as a positive reference compound. The cAMP-dependent luciferase expression was followed using the BrightGlo reagent according to the manufacturer (Promega) instructions. Luminescence was read with a Mithras plate reader (Berthold) or a Victor3™ V1420 (Perkin Elmer). […] Concentration-response curves were fitted by a nonlinear regression analysis to a 4 parameter logistic equation

hTGR5 = target: T2, hTGR5 (Homo sapiens, UniProt Q8TDU6); assay: TGR5/CRE Luciferase Assay (hTGR5); format: cell-based; details: for EC50: HEK 293 cells co-transfected with pCMV tag4b-TGR5h and pCRE TA-Luciferase, overnight incubation; for hTGR5 % trans: percentage of the 10 μM LCA value, HEK 293 cells transfected with hTGR5
T2 construct: expressed in transfected cells; host or cells: HEK293 cells, transiently co-transfected with the pCRE TA-Luciferase reporter
T2 sequence (Q8TDU6 1-330): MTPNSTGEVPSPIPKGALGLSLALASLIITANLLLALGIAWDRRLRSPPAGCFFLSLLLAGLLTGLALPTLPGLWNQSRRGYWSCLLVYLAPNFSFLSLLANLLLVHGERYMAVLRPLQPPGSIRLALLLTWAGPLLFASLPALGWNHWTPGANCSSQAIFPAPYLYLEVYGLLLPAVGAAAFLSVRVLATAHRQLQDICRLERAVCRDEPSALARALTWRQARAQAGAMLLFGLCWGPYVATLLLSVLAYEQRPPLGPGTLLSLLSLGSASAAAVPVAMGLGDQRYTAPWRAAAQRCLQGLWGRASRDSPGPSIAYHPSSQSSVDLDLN
Description: as §1, §2

Row | SMILES | EC50 (mTGR5) [nM] | mTGR5 % trans (mTGR5) [%] | EC50 (hTGR5) [nM] | hTGR5 % trans (hTGR5) [%]
1 | COCCN1C(=O)CC(c2ccc(Cl)cc2)C(C(=O)OCc2cccc(F)c2)=C1C (stereo not shown) [Example 85, (3-fluorophenyl)methyl 4-(4-chlorophenyl)-1-(2-methoxyethyl)-6-methyl-2-oxo-3,4-dihydropyridine-5-carboxylate] | 700 | 82 | – | –
2 | COc1ccccc1COC(=O)C1=C(C)N(C[C@@H]2CCCO2)C(=O)C[C@H]1c1ccc(Cl)nc1 (racemic) [Example 159, (2-Methoxyphenyl)methyl-(4S)-4-(6-chloro-3-pyridyl)-6-methyl-2-oxo-1-[[(2S)-tetrahydrofuran-2-yl]methyl]-3,4-dihydropyridine-5-carboxylate and (2-methoxyphenyl)methyl-(4R)-4-(6-chloro-3-pyridyl)-6-methyl-2-oxo-1-[[(2R)-tetrahydrofuran-2-yl]methyl]-3,4-dihydropyridine-5-carboxylate] | – | – | 37 | 107
3 | CCN1C(=O)CC(c2ccc(Cl)cc2)C(C(=O)OCc2ccccc2)=C1C (stereo not shown) [Compound 34, Benzyl 4-(4-chlorophenyl)-1-ethyl-6-methyl-2-oxo-3,4-dihydropyridine-5-carboxylate] | 800 | 70 | – | –
4 | COc1ccccc1COC(=O)C1=C(C)N(C[C@H]2CCCO2)C(=O)C[C@H]1c1ccc(Cl)cc1 (racemic) [Compound 67, (2-methoxyphenyl)methyl (4S)-4-(4-chlorophenyl)-6-methyl-2-oxo-1-[[(2R)-tetrahydrofuran-2-yl]methyl]-3,4-dihydropyridine-5-carboxylate] | – | – | 20 | –
5 | COC(=O)CN1C(=O)CC(c2ccc(Cl)cc2)C(C(=O)OCc2ccccc2OC)=C1C (stereo not shown) [Compound 73, (2-methoxyphenyl)methyl 4-(4-chlorophenyl)-1-(2-methoxy-2-oxo-ethyl)-6-methyl-2-oxo-3,4-dihydropyridine-5-carboxylate] | 30 | 93 | – | –
6 | COc1ccccc1COC(=O)C1=C(C)N(C[C@H]2CCCO2)C(=O)C[C@H]1c1ccc(Cl)nc1 (racemic) [Example 148, (2-methoxyphenyl)methyl (4S)-4-(6-chloro-3-pyridyl)-6-methyl-2-oxo-1-[[(2R)-tetrahydrofuran-2-yl]methyl]-3,4-dihydropyridine-5-carboxylate and 2-methoxyphenyl)methyl (4R)-4-(6-chloro-3-pyridyl)-6-methyl-2-oxo-1-[[(2S)-tetrahydrofuran-2-yl]methyl]-3,4-dihydropyridine-5-carboxylate] | – | – | 1 | –
7 | CC1=C(C(=O)OCc2ccccc2)C(c2ccc(Cl)cc2)CC(=O)N1 (stereo not shown) [Compound 12, Benzyl 4-(4-chlorophenyl)-6-methyl-2-oxo-3,4-dihydro-1H-pyridine-5-carboxylate] | 4500 | 52 | – | –
8 | COc1ccccc1COC(=O)C1=C(C)N(CCO)C(=O)CC1c1ccc(Cl)cc1 (stereo not shown) [Compound 65, (2-methoxyphenyl)methyl 4-(4-chlorophenyl)-1-(2-hydroxyethyl)-6-methyl-2-oxo-3,4-dihydropyridine-5-carboxylate] | 300 | 107 | – | –
9 | CCC1=C(C(=O)OCc2ccccc2)C(c2ccc(Cl)cc2)CC(=O)N1C (stereo not shown) [Compound 18, Benzyl 4-(4-chlorophenyl)-6-ethyl-1-methyl-2-oxo-3,4-dihydropyridine-5-carboxylate] | – | – | 1400 | 34
10 | COCCN1C(=O)CC(c2ccc(Cl)cc2)C(C(=O)OCc2ccccc2OC)=C1C (stereo not shown) [Compound 64, (2-methoxyphenyl)methyl 4-(4-chlorophenyl)-1-(2-methoxyethyl)-6-methyl-2-oxo-3,4-dihydropyridine-5-carboxylate] | – | – | 100 | –
11 | CCCN1C(=O)CC(c2ccc(Cl)cc2)C(C(=O)OCc2ccccc2)=C1C (stereo not shown) [Compound 35, Benzyl 4-(4-chlorophenyl)-6-methyl-2-oxo-1-propyl-3,4-dihydropyridine-5-carboxylate] | 800 | 76 | – | –
12 | COc1ccccc1COC(=O)C1=C(C)N(C[C@H]2CCCO2)C(=O)C[C@H]1c1ccc(Cl)cc1 [Example 167, (2-Methoxyphenyl)methyl-(4S)-4-(4-chlorophenyl)-6-methyl-2-oxo-1-[[(2R)-tetrahydrofuran-2-yl]methyl]-3,4-dihydropyridine-5-carboxylate] | – | – | 8 | 103
13 | COCCN1C(=O)CC(c2ccc(Cl)cc2)C(C(=O)OCc2ccc(C(F)(F)F)cc2)=C1C (stereo not shown) [Example 92, [4-(trifluoromethyl)phenyl]methyl 4-(4-chlorophenyl)-1-(2-methoxyethyl)-6-methyl-2-oxo-3,4-dihydropyridine-5-carboxylate] | 300 | – | – | –
14 | CC1=C(C(=O)OCc2ccccc2)C(c2ccc(Cl)cc2F)CC(=O)N1 (stereo not shown) [Compound 15, benzyl 4-(4-chloro-2-fluoro-phenyl)-6-methyl-2-oxo-3,4-dihydro-1H-pyridine-5-carboxylate] | – | – | 3900 | –
15 | COCCN1C(=O)CC(c2ccc(Cl)cc2)C(C(=O)OCc2cccc(C)c2)=C1C (stereo not shown) [Example 99, m-tolylmethyl 4-(4-chlorophenyl)-1-(2-methoxyethyl)-6-methyl-2-oxo-3,4-dihydropyridine-5-carboxylate] | 300 | – | – | –
16 | COCCN1C(=O)CC(c2ccc(Cl)cc2)C(C(=O)OCc2ccccc2Cl)=C1C (stereo not shown) [Example 87, (2-chlorophenyl)methyl 4-(4-chlorophenyl)-1-(2-methoxyethyl)-6-methyl-2-oxo-3,4-dihydropyridine-5-carboxylate] | – | – | 500 | 67
17 | CC1=C(C(=O)OCc2ccccc2)C(c2ccc(Cl)cc2)CC(=O)N1CCN(C)C (stereo not shown) [Compound 50, Benzyl 4-(4-chlorophenyl)-1-[2-(dimethylamino)ethyl]-6-methyl-2-oxo-3,4-dihydropyridine-5-carboxylate] | 3600 | 77 | – | –
18 | COc1ccc(C2CC(=O)NC(C)=C2C(=O)OCc2ccccc2)cc1 (stereo not shown) [Compound 6, 4-(4-Methoxy-phenyl)-2-methyl-6-oxo-1,4,5,6-tetrahydro-pyridine-3-carboxylic acid benzyl ester] | – | – | 12800 | –
19 | CC1=C(C(=O)OCc2ccccc2)C(c2cccc(Cl)c2)CC(=O)N1 (stereo not shown) [Compound 11, 4-(3-Chloro-phenyl)-2-methyl-6-oxo-1,4,5,6-tetrahydro-pyridine-3-carboxylic acid benzyl ester] | – | 10 | – | –
20 | COCCN1C(=O)CC(c2ccc(Cl)cc2)C(C(=O)OCCCc2ccccc2)=C1C (stereo not shown) [Example 111, 3-phenylpropyl 4-(4-chlorophenyl)-1-(2-methoxyethyl)-6-methyl-2-oxo-3,4-dihydropyridine-5-carboxylate] | – | – | 1100 | 55
21 | CC1=C(C(=O)OCc2ccccc2)C(c2ccc(Br)cc2)CC(=O)N1 (stereo not shown) [Compound 16, benzyl 4-(4-bromophenyl)-6-methyl-2-oxo-3,4-dihydro-1H-pyridine-5-carboxylate] | 1700 | 21 | – | –
22 | COCCN1C(=O)CC(c2ccc(Cl)cc2)C(C(=O)OCC2CCCCC2)=C1C (stereo not shown) [Example 113] | – | – | 1100 | 57
23 | CN1C=C(C(=O)OCc2ccccc2)C(c2ccc(Cl)cc2)CC1=O (stereo not shown) [Compound 24, Benzyl 4-(4-chlorophenyl)-1-methyl-2-oxo-3,4-dihydropyridine-5-carboxylate] | 5800 | 34 | – | –
24 | CC1=C(C(=O)OCc2ccccc2)C(c2ccc(Cl)cc2)CC(=O)N1CC1CC1 (stereo not shown) [Compound 43, Benzyl 4-(4-chlorophenyl)-1-(cyclopropylmethyl)-6-methyl-2-oxo-3,4-dihydropyridine-5-carboxylate] | 300 | – | – | –
25 | CCCCN1C(=O)CC(c2ccc(Cl)cc2)C(C(=O)OCc2ccccc2)=C1C (stereo not shown) [Compound 36, Benzyl 1-butyl-4-(4-chlorophenyl)-6-methyl-2-oxo-3,4-dihydropyridine-5-carboxylate] | – | – | 600 | 54
26 | COCCN1C(=O)CC(c2ccc(Cl)cc2)C(C(=O)OCc2ccccc2OC(F)(F)F)=C1C (stereo not shown) [Example 105, (2-trifluoromethoxyphenyl)methyl 4-(4-chlorophenyl)-1-(2-methoxyethyl)-6-methyl-2-oxo-3,4-dihydropyridine-5-carboxylate] | 800 | 63 | – | –
